2 compounds from patent US10208210B2, “Hydrophilic oil repellent and production method of same, surface coating material, coating film, resin composition, oil-water separation filter material, and porous body” (MITSUBISHI MATERIALS CORPORATION, priority 2014, dated 2019) can be followed below.

Each structure is given as a SMILES string.

A short description of the series: Solubility of the compound in water at room temperature. It counts as physicochemical. The settings on record: room temperature (25° C.). How it is done:
23.5 g of perfluoro(3-dibutylaminopropionic acid) was neutralized with 1.5 g of calcium hydroxide in a methanol/water mixed solution. The precipitated crystals were separated by filtration, and dried at 100° C., whereby 23.5 g of perfluoro(3-dibutylaminopropionic acid) calcium represented by the following formula (376) was obtained (yield of 97%). The solubility of the present compound in water at room temperature (25° C.) was 2 [g/100 g-H2O].
15.0 g of perfluoro(3-dibutylaminopropionic acid) obtained in the same manner as in Synthesis Example 1 was neutralized with 1.2 g of magnesium hydroxide in a methanol/water mixed solution. Next, the precipitated crystals were separated by filtration, and by extracting with methanol, a magnesium salt was obtained. The methanol was distilled off, whereby 14.4 g of perfluoro(3-dibutylaminopropionic acid) magnesium represented by the following formula (379) was obtained (yield of 94%). The solubility of the present compound in water at room temperature was 0.009 [g/100 g-H2O].
15.0 g of perfluoro(3-dibutylaminopropionic acid) obtained in the same manner as in Synthesis Example 1 was neutralized with 4.0 g of barium hydroxide octahydrate in a methanol/water mixed solution. […]

`O=C(O)C(F)(F)C(F)(F)N(C(F)(F)C(F)(F)C(F)(F)C(F)(F)F)C(F)(F)C(F)(F)C(F)(F)C(F)(F)F.[Mg]` [Synthesis Example 4, perfluoro(3-dibutylaminopropionic acid) magnesium]: the “solubility of the present compound in water” value came out at 0.009 g/100 g-H2O.
As to `O=C(O)C(F)(F)C(F)(F)N(C(F)(F)C(F)(F)C(F)(F)C(F)(F)F)C(F)(F)C(F)(F)C(F)(F)C(F)(F)F.[Ba]` [Synthesis Example 5, perfluoro(3-dibutylaminopropionic acid) barium], the “solubility of the present compound in water” value worked out at 0.04 g/100 g-H2O.
